Test results as given in ChEMBL document CHEMBL1135719, “Structural basis of RasGRP binding to high-affinity PKC ligands” (J Med Chem, 2002).

What was measured:
[1] = biological target: T1, RAS guanyl-releasing protein 1 (Rattus norvegicus, UniProt Q9R1K8); assay: Binding affinity against RAS guanyl releasing protein using [3H]- PDBu as the labeled ligand
T1 sequence (Q9R1K8 whole entry): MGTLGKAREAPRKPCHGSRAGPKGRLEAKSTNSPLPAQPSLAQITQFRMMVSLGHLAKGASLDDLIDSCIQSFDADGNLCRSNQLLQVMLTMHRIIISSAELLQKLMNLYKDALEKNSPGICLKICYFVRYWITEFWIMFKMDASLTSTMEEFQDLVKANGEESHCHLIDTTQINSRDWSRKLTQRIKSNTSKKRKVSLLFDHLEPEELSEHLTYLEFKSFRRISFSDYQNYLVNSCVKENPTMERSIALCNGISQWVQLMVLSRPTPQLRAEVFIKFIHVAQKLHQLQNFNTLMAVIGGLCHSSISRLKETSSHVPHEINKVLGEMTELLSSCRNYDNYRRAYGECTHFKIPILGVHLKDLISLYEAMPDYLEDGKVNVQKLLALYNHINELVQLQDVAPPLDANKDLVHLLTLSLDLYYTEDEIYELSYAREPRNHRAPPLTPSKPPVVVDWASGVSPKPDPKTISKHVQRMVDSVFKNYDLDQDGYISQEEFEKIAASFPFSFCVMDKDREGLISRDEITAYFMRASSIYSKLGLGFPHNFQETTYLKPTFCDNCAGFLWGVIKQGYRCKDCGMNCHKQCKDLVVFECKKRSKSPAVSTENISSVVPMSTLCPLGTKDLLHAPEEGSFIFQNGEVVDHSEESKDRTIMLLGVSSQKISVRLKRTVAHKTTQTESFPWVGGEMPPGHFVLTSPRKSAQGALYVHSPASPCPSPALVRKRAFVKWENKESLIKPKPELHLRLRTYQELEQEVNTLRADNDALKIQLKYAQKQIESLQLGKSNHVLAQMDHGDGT

[2] = biological target: Protein kinase C delta type (Mus musculus, UniProt P28867); assay: Displacement of [3H]- PDBu from Protein kinase C delta C1b domain
Chain of Protein kinase C delta type (P28867 whole entry, the tested form may be a part): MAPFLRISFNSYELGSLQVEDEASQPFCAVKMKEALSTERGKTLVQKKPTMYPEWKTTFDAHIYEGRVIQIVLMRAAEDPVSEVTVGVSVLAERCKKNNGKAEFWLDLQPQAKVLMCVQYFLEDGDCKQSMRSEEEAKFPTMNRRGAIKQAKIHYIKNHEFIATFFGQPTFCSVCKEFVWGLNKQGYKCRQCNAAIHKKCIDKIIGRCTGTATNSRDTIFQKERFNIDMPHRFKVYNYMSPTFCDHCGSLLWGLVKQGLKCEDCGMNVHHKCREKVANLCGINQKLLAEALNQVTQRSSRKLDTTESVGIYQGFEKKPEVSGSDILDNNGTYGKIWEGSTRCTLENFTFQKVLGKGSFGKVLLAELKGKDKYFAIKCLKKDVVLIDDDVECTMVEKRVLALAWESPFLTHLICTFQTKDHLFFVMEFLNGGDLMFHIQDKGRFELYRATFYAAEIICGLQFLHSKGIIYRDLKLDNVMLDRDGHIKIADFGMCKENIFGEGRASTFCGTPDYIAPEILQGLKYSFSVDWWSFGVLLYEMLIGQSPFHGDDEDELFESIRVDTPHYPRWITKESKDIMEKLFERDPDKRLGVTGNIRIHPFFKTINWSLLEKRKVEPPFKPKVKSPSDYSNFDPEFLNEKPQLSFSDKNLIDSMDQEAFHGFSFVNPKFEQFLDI

SMILES: CCCCCCCCC#Cc1ccc2c(c1)C[C@@H](CO)NC(=O)[C@H](C(C)C)N2C
- Ki [1]: 6.15 nM
- Ki [2]: 10.7 nM

SMILES: CCCCCCCCc1ccc2c3c(c[nH]c13)C[C@@H](CO)NC(=O)[C@H](C(C)C)N2C
- Ki [1]: 0.85 nM
- Ki [2]: 0.1 nM

SMILES: CC(C)[C@H]1C(=O)N[C@H](CO)Cc2c[nH]c3cccc(c23)N1C [INDOLACTUM]
- Ki [1]: 2.54 nM

SMILES: CCCCCCCCC#Cc1ccc2c(c1OC)C[C@@H](CO)NC(=O)[C@H](C(C)C)N2C
- Ki [1]: 13.9 nM
- Ki [2]: 35.1 nM
